Reference: patent publication US8168232B2, “Formulations and methods of using nitric oxide mimetics in cancer treatment” (priority 2000, dated 2012)

Columns and labels:
[1] = tested on: metalloproteinase (gelatinase); test: Zymography of metalloproteinase (gelatinase) secretion by breast cancer cells; assay type: cell-based, human; conditions: 10^−11 M GTN, 10^−12 M SNP
Experimental: The cells were cultured using a serum-free medium (EX-CELL 300). Following incubation, the medium was extracted and centrifuged at 5,000 RPM for 5 minutes. The supernatant was subsequently collected and stored at −80° C. until further use. SDS-polyacrylamide gels were prepared in accordance with well-known procedures. For the analysis of metalloproteinase secretion, the gel contained 0.1% w/v gelatin, and for the analysis of plasminogen activator secretion, the gel was supplemented with 0.1% w/v casein as well as plasminogen (50 μg/mL). The serum-free conditioned medium was then combined with a nonreducing sample loading buffer (0.5 M Tris, 10% SDS, 1% Bromophenol Blue in 2 mL glycerol) in a ratio of 4:1 and was not boiled. Following electrophoresis, the gels underwent two 15 minute washes with 2.5% Triton X-100. This step removed the SDS. After the washes with H2O, the gels were incubated overnight at 37° C. in a solution containing Tris-HCl (pH 7.0) and CaCl2 (5 mM). The gels were stained with 0.4% Coomassie Brilliant Blue R-250 in 40% methanol/10% glacial acetic acid/50% distilled water for approximately 1 hour, and then destained for about 2 hours in 30% methanol/10% glacial acetic acid/60% distilled water. […]

PROXY-1 mRNA = PROXY-1 mRNA levels in HTR-8/SVneo invasive trophoblast cells; assay type: cell-based, human; conditions: 1% O2
Description: PROXY-1 mRNA levels were very low in cells cultured in 20% O2.

[2] = tested on: prostate specific antigen (PSA); test: PSA levels in prostate cancer patients on low dose transdermal GTN; assay type: in vivo, human
Experimental: Patients with prostatic adenocarcinoma were selected for this study because the progression of this type of cancer correlates well with the plasma levels of prostate-specific antigen (PSA). Thus, the outcome of low dose NO mimetic therapy can be easily assessed by measuring PSA levels. […] Plasma PSA levels were measured via a commercially available immunoassay kit such as Immuno 1 (Bayer Corporation).
Methods: Patients with a previous history of prostatectomy that have experienced biochemical failure as per the ASTRO criteria (three successive rises in PSA), PSA<10 (units), stable with sub-clinical disease were included in the study after signing an informed consent. All patients were placed on treatment with continuous low dose transdermal nitroglycerin (˜0.03 mg/hr, 24 hours a day). Subjects returned to the study centre for monthly PSA measurements. Subjects were withdrawn from the study if there was evidence of disease progression or other intervening medical events.

PAI-1 mRNA = test: Northern blot of PAI-1 mRNA in breast cancer cells; assay type: cell-based, human; conditions: SNP 10^−12 M, GTN 10^−11 M
Experimental: Following incubation, the total cellular RNA from the cells was isolated using the Gentra […] RNA Isolation Kit. The isolated RNA was subsequently separated by electrophoresis, and transferred to charged nylon membranes. The membranes were prehybridized at 42° C. for approximately 2 hours in a solution containing 50% formamide, 5×Denhardt's solution, 0.5% sodium dodecyl sulfate (SDS), 6×SSC (1×SSC=0.15 M NaCl, 15 mM sodium citrate, pH 7.0) and 100 μg/mL denatured salmon sperm DNA. They were then hybridized with a [^32P]-dCTP-labeled cDNA probe (uPAR or PAI-1) for approximately 24 hours at 42° C. in a solution composed of 6×SSC, 0.5% SDS, 100 μg/mL denatured salmon sperm DNA and 50% formamide, and containing a cDNA probe (uPAR or PAI-1) which was labeled with [^32P]-dCTP using a Pharmacia Oligolabelling kit. Following serial washes, the membrane was used to expose Dupont Reflection NEF film. After 1-4 days, the film was developed and analyzed. To correct for differences in the amount of RNA loaded in each sample, 28S rRNA was used.

uPAR mRNA = test: Northern blot analysis of uPAR mRNA in MDA-MB-231 breast carcinoma cells; assay type: cell-based, human
[3] = tested on: MDA-MB-231 breast carcinoma spheroids; test: Clonogenic survival of MDA-MB-231 spheroids after doxorubicin; assay type: cell-based, human
Experimental: Following initial cell plating, spheroids formed for 24, 48, 72, 96 or 120 h. At each time point, spheroids were exposed to 200 μM of doxorubicin, then disaggregated and plated for assessment of colony formation (survival).
Spheroids were allowed to form for 72 h. DETA/NO was applied for the final 24 h of spheroid formation. Spheroids were then exposed to doxorubicin for 1 h, prior to disaggregation and plating for assessment of survival by clonogenic assay.
Using human MDA-MB-231 breast carcinoma cells in clonogenic assays, survival was determined following doxorubicin exposure and NO mimetic administration to both monolayer and spheroid cultures.

## O=[N+]([O-])OCC(CO[N+](=O)[O-])O[N+](=O)[O-] [GTN, glyceryl trinitrate]
[1]
  gelatinases secreted vs untreated hypoxic cells: decrease in gelatinases secreted
PROXY-1 mRNA; 10^−7 M GTN
  PROXY-1 mRNA levels in hypoxic cells: increased
PROXY-1 mRNA; 10^−11 M GTN
  PROXY-1 mRNA levels in hypoxic cells: much lower
[2]; GTN 0.033 mg/hour transdermal patches, recurrent prostatic adenocarcinoma, two patients, within two months
  plasma PSA levels: sharp decline
[2]; one patient, prostate intact, on anti-androgen therapy, GTN 0.03 mg/hour, about one month each
  PSA velocity, first two treatment episodes: reduction of PSA velocity
[2]; one patient, prostate intact, GTN 0.03 mg/hour, about one month
  PSA levels, third treatment episode: decrease in PSA levels
[2]; one patient, chronic transdermal GTN 0.03 mg/hour, radiation alone expected average twelve months
  time to PSA decrease with combined radiation therapy: within three months
[2]; transdermal ~0.03 mg/hr 24 hours a day, 5 or more months of therapy, decreased from 14%/month, post-prostatectomy biochemical failure
  mean PSA velocity on therapy: 5.4 %/month
[2]; transdermal ~0.03 mg/hr, 24 hours a day
  drug related adverse events: No patients experienced drug related adverse events
PAI-1 mRNA
  PAI-1 mRNA levels vs untreated hypoxic cells: significantly decreased
uPAR mRNA; 1 μM of GTN
  effect of DFO on uPAR mRNA expression: not prevented
uPAR mRNA; 1% O2, SNP 10^−12 M, GTN 10^−11 M and 10^−10 M
  uPAR mRNA levels vs untreated hypoxic cells: significantly reduced
uPAR mRNA; GTN 1 μM
  hypoxic upregulation of uPAR mRNA expression: prevented
uPAR mRNA; GTN 1 μM with ODQ 0.5 μM
  effect of hypoxia on uPAR mRNA when ODQ also present: unable to block
uPAR mRNA; GTN (10^−10 M, 10^−6 M)
  inhibition of DFO (100 μM)-induced upregulation of uPAR: could not be inhibited
uPAR mRNA; GTN (a pM) as printed
  hypoxia-mediated increase in uPAR mRNA levels: inhibited
uPAR mRNA; combination of L-NMMA (0.5 mM) and GTN (0.1 nM), 20% O2
  uPAR transcript levels vs 20% O2 alone: no significant increase
[3]; DETA 0.1 mM and 2 μM, GTN 0.1 nM and 1 μM
  survival of control (doxorubicin-untreated) cells: did not affect the survival
[3]; spheroids
  attenuation of resistance to 200 μM doxorubicin associated with 3D culture: 30%
